Assay results reported in patent publication US12692262B2, “Substituted ureas as orexin receptor agonists” (Merck Sharp & Dohme LLC, priority 2020, dated 2026).

Target: T1, human OX2R (Homo sapiens, UniProt O43614)
T1 construct: expressed in transfected cells; host or cells: CHO (Chinese hamster ovary) cells grown under G418 selection
T1 sequence (O43614 1-444): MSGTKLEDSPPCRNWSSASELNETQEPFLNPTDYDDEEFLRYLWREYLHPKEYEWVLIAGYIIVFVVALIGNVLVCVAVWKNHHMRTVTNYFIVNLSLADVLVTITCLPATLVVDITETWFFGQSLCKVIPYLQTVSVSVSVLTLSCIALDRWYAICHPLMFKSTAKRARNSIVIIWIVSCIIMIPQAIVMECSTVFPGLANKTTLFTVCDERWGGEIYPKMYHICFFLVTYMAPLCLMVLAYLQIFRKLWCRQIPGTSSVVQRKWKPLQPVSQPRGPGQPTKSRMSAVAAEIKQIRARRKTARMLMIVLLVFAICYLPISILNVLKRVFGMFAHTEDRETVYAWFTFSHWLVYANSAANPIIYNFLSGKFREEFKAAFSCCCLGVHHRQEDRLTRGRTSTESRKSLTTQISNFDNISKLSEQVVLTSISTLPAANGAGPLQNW
Assay: IPOne (IP-1 accumulation) assay in CHO cells expressing human OX2R
Type: cell-based
Details: for EC50: CHO cells expressing human OX2R, IP-One assay, 2 h incubation, four parameter logistic fit, read-out: OX2R Potency, EC50; for % of maximum agonist effect (relative to Orexin A): percent effect vs mean max effect of a reference compound at 1 uM (100% activity vs Orexin A), human OX2R
Procedure, shortened: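 Agonist EC50 values come from the inflection point of four-parameter logistic curves. Read-out is IP-1 accumulation detected with lysis buffer plus D2 and AB-cryptate reagents (HTRF), in CHO cells engineered to express human OX2R.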

EC50 | % of maximum agonist effect (relative to Orexin A) | SMILES
35.2 nM | 97.9% | CCN(C(=O)N[C@@H](CCC(F)(F)F)C(F)(F)F)C(c1cc(-c2cn3ccnc3c(OC)n2)cc(OC)n1)C(F)(F)F (stereo partly drawn) [Example 10-16, 1-ethyl-3-((S)-1,1,1,5,5,5-hexafluoropentan-2-yl)-1-(2,2,2-trifluoro-1-(6-methoxy-4-(8-methoxyimidazo[1,2-a]pyrazin-6-yl)pyridin-2-yl)ethyl)urea]
88.8 nM | 100.5% | CCN(C(=O)N[C@@H](CCC(F)(F)F)C(F)(F)F)C(c1cc(-c2cn3ccnc3c(OC)n2)cnc1OC)C(F)(F)F (stereo partly drawn) [Example 10-17, 1-ethyl-3-((S)-1,1,1,5,5,5-hexafluoropentan-2-yl)-1-(2,2,2-trifluoro-1-(2-methoxy-5-(8-methoxyimidazo[1,2-a]pyrazin-6-yl)pyridin-3-yl)ethyl)urea]
11.9 nM | 99.8% | CCN(C(=O)N[C@@H](CCC(F)(F)F)C(F)(F)F)[C@H](C)c1cnc(C)c(-c2cn3ccnc3c(OC)n2)c1 [Example 10-18, 1-ethyl-3-((S)-1,1,1,5,5,5-hexafluoropentan-2-yl)-1-((R)-1-(5-(8-methoxyimidazo[1,2-a]pyrazin-6-yl)-6-methylpyridin-3-yl)ethyl)urea]
0.8 nM | 100.6% | CCN(C(=O)N[C@@H](CCC(C)(F)F)C(F)(F)F)[C@H](C)c1cnc(OC)c(-c2cn3ccnc3c(OC)n2)c1 [Example 10-19, 1-ethyl-1-((R)-1-(6-methoxy-5-(8-methoxyimidazo[1,2-a]pyrazin-6-yl)pyridin-3-yl)ethyl)-3-((S)-1,1,1,5,5-pentafluorohexan-2-yl)urea]
1.6 nM | 100.9% | CCN(C(=O)N[C@@H](CCC(F)(F)F)C(F)(F)F)[C@@H](c1cc(-c2cn3ccnc3c(OC)n2)c(C)cn1)C(F)(F)F [Example 10-21, 1-ethyl-3-((S)-1,1,1,5,5,5-hexafluoropentan-2-yl)-1-((S)-2,2,2-trifluoro-1-(4-(8-methoxyimidazo[1,2-a]pyrazin-6-yl)-5-methylpyridin-2-yl)ethyl)urea]
0.7 nM | 101.6% | CCN(C(=O)N[C@@H](CCC(F)(F)F)C(F)(F)F)[C@H](C)c1cnc(OC)c(-c2cn3ccnc3c(OC)n2)c1 [Example 11-4, 1-ethyl-3-((S)-1,1,1,5,5,5-hexafluoropentan-2-yl)-1-((R)-1-(6-methoxy-5-(8-methoxyimidazo[1,2-a]pyrazin-6-yl)pyridin-3-yl)ethyl)urea]
0.6 nM | 100.1% | CCN(C(=O)N[C@@H](CCC(F)(F)F)C(F)(F)F)[C@H](C)c1cc(-c2cn3ccnc3c(OC)n2)c(OC)cn1 [Example 12-1, 1-ethyl-3-((S)-1,1,1,5,5,5-hexafluoropentan-2-yl)-1-((R)-1-(5-methoxy-4-(8-methoxyimidazo[1,2-a]pyrazin-6-yl)pyridin-2-yl)ethyl)urea]
1.2 nM | 100.6% | CCN(C(=O)N[C@@H](CCC(F)(F)F)C1CC1)[C@H](C)c1cnc(OC)c(-c2cn3ccnc3c(OC)n2)c1 [Example 12-2, 3-((S)-1-cyclopropyl-4,4,4-trifluorobutyl)-1-ethyl-1-((R)-1-(6-methoxy-5-(8-methoxyimidazo[1,2-a]pyrazin-6-yl)pyridin-3-yl)ethyl)urea]
11.7 nM | 101.4% | CCN(C(=O)N[C@@H](CCC(F)(F)F)C(F)(F)F)C(C)c1ccnc(-c2cn3ccnc3c(OC)n2)c1 (stereo partly drawn) [Example 13-1, 1-ethyl-3-((S)-1,1,1,5,5,5-hexafluoropentan-2-yl)-1-(1-(2-(8-methoxyimidazo[1,2-a]pyrazin-6-yl)pyridin-4-yl)ethyl)urea]
16.8 nM | 101.4% | CCN(C(=O)N[C@@H](CCC(F)(F)F)C(F)(F)F)C(C)c1cc(-c2cn3ccnc3c(OC)n2)ncn1 (stereo partly drawn) [Example 13-2, 1-ethyl-3-((S)-1,1,1,5,5,5-hexafluoropentan-2-yl)-1-(1-(6-(8-methoxyimidazo[1,2-a]pyrazin-6-yl)pyrimidin-4-yl)ethyl)urea]
1.5 nM | 100.3% | CCN(C(=O)N[C@@H](CCC(F)(F)F)C(F)(F)F)[C@H](C)c1cc(-c2cn3ccnc3c(OC)n2)ccn1 [Example 14-1, 1-ethyl-3-((S)-1,1,1,5,5,5-hexafluoropentan-2-yl)-1-((R)-1-(4-(8-methoxyimidazo[1,2-a]pyrazin-6-yl)pyridin-2-yl)ethyl)urea]
2.6 nM | 96.0% | CC[C@H](CCC(F)(F)F)NC(=O)N(CC)[C@H](C)c1ccc(Cl)c(-c2cc(OC)c3nccn3c2)c1 [Example 14-2, 1-((R)-1-(4-chloro-3-(8-methoxyimidazo[1,2-a]pyridin-6-yl)phenyl)ethyl)-1-ethyl-3-((R)-6,6,6-trifluorohexan-3-yl)urea]

Continued, molecule first:

SMILES | EC50 | % of maximum agonist effect (relative to Orexin A)
CCN(C(=O)N[C@@H](CCC(F)(F)F)C(F)(F)F)C(c1cc(-c2cc(OC)c3ncccc3c2)c(OC)cn1)C(F)(F)F (stereo partly drawn) [Example 10-11, 1-ethyl-3-((S)-1,1,1,5,5,5-hexafluoropentan-2-yl)-1-(2,2,2-trifluoro-1-(5-methoxy-4-(8-methoxyquinolin-6-yl)pyridin-2-yl)ethyl)urea] | 7.3 nM | 101.3%
CCN(C(=O)N[C@@H](CCC(F)(F)F)C(F)(F)F)C(c1cc(-c2cn3c(C#N)cnc3c(OC)n2)c(OC)cn1)C(F)(F)F (stereo partly drawn) [Example 10-12, 1-(1-(4-(3-cyano-8-methoxyimidazo[1,2-a]pyrazin-6-yl)-5-methoxypyridin-2-yl)-2,2,2-trifluoroethyl)-1-ethyl-3-((S)-1,1,1,5,5,5-hexafluoropentan-2-yl)urea] | 70.1 nM | 100.5%
CCN(C(=O)N[C@@H](CCC(F)(F)F)C(F)(F)F)C(c1cc(-c2cc(OC)c3nccnc3c2)c(OC)cn1)C(F)(F)F (stereo partly drawn) [Example 10-13, 1-ethyl-3-((S)-1,1,1,5,5,5-hexafluoropentan-2-yl)-1-(2,2,2-trifluoro-1-(5-methoxy-4-(8-methoxyquinoxalin-6-yl)pyridin-2-yl)ethyl)urea] | 132 nM | 101.7%
CCN(C(=O)N[C@@H](CCC(F)(F)F)C(F)(F)F)[C@@H](c1cc(-c2cc(OC)c3[nH]cnc3c2)c(OC)cn1)C(F)(F)F [Example 10-15, 1-ethyl-3-((S)-1,1,1,5,5,5-hexafluoropentan-2-yl)-1-((S)-2,2,2-trifluoro-1-(5-methoxy-4-(7-methoxy-1H-benzo[d]imidazol-5-yl)pyridin-2-yl)ethyl)urea] | 6.4 nM | 99.8%
CCN(C(=O)N[C@@H](CCC(F)(F)F)C(F)(F)F)C(c1ccc(OC)c(-c2cn3ccnc3c(OC)n2)n1)C(F)(F)F (stereo partly drawn) [Example 10-20, 1-ethyl-3-((S)-1,1,1,5,5,5-hexafluoropentan-2-yl)-1-(2,2,2-trifluoro-1-(5-methoxy-6-(8-methoxyimidazo[1,2-a]pyrazin-6-yl)pyridin-2-yl)ethyl)urea] | 0.7 nM | 101.0%
CCN(C(=O)N[C@@H](CCC(F)(F)F)C(F)(F)F)C(c1cncc(-c2cn3ccnc3c(OC)n2)c1)C(F)(F)F (stereo partly drawn) [Example 10-22, 1-ethyl-3-((S)-1,1,1,5,5,5-hexafluoropentan-2-yl)-1-(2,2,2-trifluoro-1-(5-(8-methoxyimidazo[1,2-a]pyrazin-6-yl)pyridin-3-yl)ethyl)urea] | 76.9 nM | 99.4%
CC[C@H](CCC(F)(F)F)NC(=O)N(CC)[C@H](C)c1cc2c(c(-c3ccc4nccn4c3)c1)OCC2 [Example 11-1, 1-ethyl-1-((R)-1-(7-(imidazo[1,2-a]pyridin-6-yl)-2,3-dihydrobenzofuran-5-yl)ethyl)-3-((R)-6,6,6-trifluorohexan-3-yl)urea] | 5.6 nM | 97.4%
CC[C@H](CCC(F)(F)F)NC(=O)N(CC)[C@H](C)c1cc(-c2ccc3nccn3c2)c(OC)cc1F [Example 11-2, 1-ethyl-1-((R)-1-(2-fluoro-5-(imidazo[1,2-a]pyridin-6-yl)-4-methoxyphenyl)ethyl)-3-((R)-6,6,6-trifluorohexan-3-yl)urea] | 80.5 nM | 98.5%
CC[C@H](CCC(F)(F)F)NC(=O)N(CC)[C@H](C)c1ccc(Br)c(-c2ccc3nccn3c2)c1 [Example 11-3, 1-((R)-1-(4-bromo-3-(imidazo[1,2-a]pyridin-6-yl)phenyl)ethyl)-1-ethyl-3-((R)-6,6,6-trifluorohexan-3-yl)urea] | 129 nM | 91.8%
CCN(C(=O)N[C@@H](CCC(F)(F)F)C(F)(F)F)[C@H](C)c1cc(-c2cc(OC)n3nccc3c2)c(OC)cn1 [Example 11-5, 1-ethyl-3-((S)-1,1,1,5,5,5-hexafluoropentan-2-yl)-1-((R)-1-(5-methoxy-4-(7-methoxypyrazolo[1,5-a]pyridin-5-yl)pyridin-2-yl)ethyl)urea] | 0.6 nM | 100.1%
